In patent US20260315452A1, “PROTEASE INHIBITORS AND USES THEREOF” (priority 2023, published 2026):
Where a name gives a salt, the structure may show the parent alone.

Tests used:
[1] = Plasma protein binding (PPB) by equilibrium dialysis; format: in vitro ADME; conditions: human and mouse plasma, 4 hours, 37° C., versus Ref-2
Procedure: The binding of compounds Ref-2, 86, 97, 98 and 170 to human and mouse plasma were measured using equilibrium dialysis. A loading matrix was prepared by diluting of a 400 μM stock of each of the compounds in DMSO by the plasma matrix. To prepare the time zero (To) samples to be used for recovery determination, 50 μL of the loading matrix were transferred in triplicate to the sample collection plate, immediately matched with opposite blank buffer to obtain a final volume of 100 μL of 1:1 matrix/dialysis buffer (v/v) in each well, followed by the addition of 500 μL of stop solution (200 ng/mL of tolbutamide, 200 ng/mL of labetalol, and 50 ng/mL of metformin in acetonitrile) and then stored at 2-8° C. pending further processes along with other post-dialysis samples. To load the dialysis device, 150 μL of the loading matrix and 150 μL of the dialysis buffer were transferred to the donor side and the receiver side of each well, respectively. The dialysis plate was placed in a humidified incubator at 37° C. with 5% CO2 on a shaking platform that rotated slowly (about 100 rpm) for 4 hours, then 50 μL of samples were taken from both the buffer side and the matrix side, and transferred into new 96-well plates. Each sample was mixed with an equal volume of opposite blank buffer (or matrix) to reach a final volume of 100 μL, followed by the addition of 500 µL of stop solution. The mixture was vortexed and centrifuged at 4000 rpm for about 20 minutes, then […] of the supernatant of each sample was removed for LC-MS/MS analysis. The single blank samples were prepared by transferring 50 μL of blank matrix to a 96 well plate and adding 50 μL of blank PBS buffer to each well. The blank plasma must match the species of plasma used in the plasma side of the well. Then the matrix-matched samples were further processed by adding 500 μL of stop solution, following the same sample processing method as the dialysis samples. The % Unbound, % Bound and % Recovery were calculated using the following equations: […]
in which F is the analyte concentration or peak area ratio of analyte/internal standard on the buffer (receiver) side of the membrane, T is the analyte concentration or peak area ratio of analyte/internal standard on the matrix (donor) side of the membrane, and T0 is the analyte concentration or the peak area ratio of analyte/internal standard in the loading matrix sample at time zero.

[2] = molecular target: SARS-CoV-2 3CLpro (Severe acute respiratory syndrome coronavirus 2, UniProt P0DTD1); test: biochemical; conditions: inhibition of SARS-CoV-2 3CLpro; 15 nM 3CLpro, 25 μM fluorogenic substrate, 37° C.; read-out: Inhibitory Activity (IC50)
[3] = test system: SARS-CoV-2; test: Anti-SARS-CoV-2 activity in A549 cells expressing the human ACE2 receptor (inhibition of SARS-CoV-2 replication); format: cell-based; conditions: Severe acute respiratory syndrome coronavirus 2, A549-ACE2, 24 h, read-out: Antiviral Activity (EC50)

Row | Compound | free PPB ratio in comparison with compound Ref-2 [1] | IC50 [2] | EC50 [3]
1 | CNC(=O)c1cc(Cl)cc([N+](=O)[O-])c1N[C@H]1CN(C(=O)c2cncc3ccn(C)c23)CCC1(F)F [Compound 86, (S)-5-chloro-2-((4,4-difluoro-1-(1-methyl-1H-pyrrolo [3,2-c]pyridine-7-carbonyl)piperidin-3-yl)amino)-N-methyl-3-nitrobenzamide] | better free PPB ratios | < 100 nM | 
2 | O=C(NC1CC(F)(F)C1)c1cc(Cl)cc(C(F)(F)F)c1N[C@H]1CN(C(=O)c2cncc3ccccc23)CCC1(F)F [Compound 82, (S)-5-chloro-2-((4,4-difluoro-1-(isoquinoline-4-carbonyl)piperidin-3-yl)amino)-N-(3,3-difluorocyclobutyl)-3-(trifluoromethyl)benzamide] |  | < 100 nM | < 100 nM
3 | O=C(c1cc(Br)cc([N+](=O)[O-])c1N[C@H]1CN(C(=O)c2cncc3ccccc23)CCC1(F)F)N1CC(O)C1 [Compound 139, (S)-(5-bromo-2-((4,4-difluoro-1-(isoquinoline-4-carbonyl)piperidin-3-yl)amino)-3-nitrophenyl)(3-hydroxyazetidin-1-yl)methanone] |  | < 100 nM | < 100 nM
4 | CNC(=O)c1cc(Br)cc([N+](=O)[O-])c1N[C@@H]1CCCC[C@@H]1NC(=O)c1cncc2cc(F)ccc12 [Compound 8, N-((1S, 2R)-2-((4-bromo-2-(methylcarbamoyl)-6-nitrophenyl)amino)cyclohexyl)-7-fluoroisoquinoline-4-carboxamide] |  | < 100 nM | 100 to 1000 nM
5 | CNC(=O)c1cc(Br)cc([N+](=O)[O-])c1N[C@H]1CN(C(=O)c2cncc3ccccc23)CC(F)(F)C1 [Compound 62, (R)-5-bromo-2-((5,5-difluoro-1-(isoquinoline-4-carbonyl)piperidin-3-yl)amino)-N-methyl-3-nitrobenzamide] |  | 100 to 1000 nM | 100 to 1000 nM
6 | O=C(NCC(F)F)c1cc(Br)cc([N+](=O)[O-])c1N[C@@H]1CCCC[C@@H]1NC(=O)c1cncc2ccccc12 [Compound 61, N-((IS, 2R)-2-((4-bromo-2-((2,2-difluoroethyl)carbamoyl)-6-nitrophenyl)amino)cyclohexyl)isoquinoline-4-carboxamide] |  | < 100 nM | < 100 nM
7 | CNC(=O)c1cc(Br)cc([N+](=O)[O-])c1N[C@@H]1COCC[C@@H]1NC(=O)c1cncc2ccccc12 [Compound 132, N-((3S, 4S)-3-((4-bromo-2-(methylcarbamoyl)-6-nitrophenyl)amino)tetrahydro-2H-pyran-4-yl)isoquinoline-4-carboxamide] |  | < 100 nM | < 100 nM
8 | CNC(=O)c1cc(Cl)cc(C(F)(F)F)c1N[C@@H]1COCC[C@@H]1NC(=O)c1cncc2ccccc12 [Compound 146, N-((3S, 4S)-3-((4-chloro-2-(methylcarbamoyl)-6-(trifluoromethyl)phenyl)amino)tetrahydro-2H-pyran-4-yl)isoquinoline-4-carboxamide] |  | 100 to 1000 nM | 100 to 1000 nM
9 | CNC(=O)c1cc(Br)cc([N+](=O)[O-])c1N[C@@H]1CCCC[C@@H]1NC(=O)c1cncc2ccncc12 [Compound 55, N-((1S, 2R)-2-((4-bromo-2-(methylcarbamoyl)-6-nitrophenyl)amino)cyclohexyl)-2,6-naphthyridine-4-carboxamide] |  | 100 to 1000 nM | 100 to 1000 nM
10 | O=C(c1cc(Br)cc([N+](=O)[O-])c1N[C@H]1CN(C(=O)c2cncc3ccccc23)CCC1(F)F)N1CC(F)(F)C1 [Compound 36, (S)-(5-bromo-2-((4,4-difluoro-1-(isoquinoline-4-carbonyl)piperidin-3-yl)amino)-3-nitrophenyl)(3,3-difluoroazetidin-1-yl)methanone] |  | < 100 nM | < 100 nM
11 | CNC(=O)c1cc(Br)cc([N+](=O)[O-])c1N[C@@H]1CN(C)CC[C@@H]1NC(=O)c1cncc2ccccc12 [Compound 89, N-((3R,4S)-3-((4-bromo-2-(methylcarbamoyl)-6-nitrophenyl)amino)-1-methylpiperidin-4-yl)isoquinoline-4-carboxamide] |  | 1000 to 10000 nM | 1000 to 10000 nM
12 | CN1CC[C@@H](NC(=O)c2cc(Br)cc([N+](=O)[O-])c2N[C@H]2CN(C(=O)c3cncc4ccccc34)CCC2(F)F)C1 [Compound 45, 5-bromo-2-(((S)-4,4-difluoro-1-(isoquinoline-4-carbonyl)piperidin-3-yl)amino)-N-((R)-1-methylpyrrolidin-3-yl)-3-nitrobenzamide hydrochloride] |  | < 100 nM | < 100 nM
13 | CN(C)C1CN(C(=O)c2cc(Br)cc([N+](=O)[O-])c2N[C@H]2CN(C(=O)c3cncc4ccccc34)CCC2(F)F)C1 [Compound 47] |  | < 100 nM | < 100 nM
14 | CC(C)(O)CNC(=O)c1cc(Cl)cc([N+](=O)[O-])c1N[C@H]1CN(C(=O)c2cncc3ccccc23)CCC1(F)F [Compound 40, (S)-5-chloro-2-((4,4-difluoro-1-(isoquinoline-4-carbonyl)piperidin-3-yl)amino)-N-(2-hydroxy-2-methylpropyl)-3-nitrobenzamide] |  | < 100 nM | < 100 nM
15 | O=C(N[C@@H]1CCOC1)c1cc(Cl)cc([N+](=O)[O-])c1N[C@H]1CN(C(=O)c2cncc3ccccc23)CCC1(F)F [Compound 142, 5-chloro-2-(((S)-4,4-difluoro-1-(isoquinoline-4-carbonyl)piperidin-3-yl)amino)-3-nitro-N-((R)-tetrahydrofuran-3-yl)benzamide] |  | < 100 nM | < 100 nM
16 | CNC(=O)c1cc(Br)cc([N+](=O)[O-])c1N[C@@H]1CCCN(C(=O)c2cncc3ccccc23)C1 [Compound 75, (R)-5-bromo-2-((1-(isoquinoline-4-carbonyl)piperidin-3-yl)amino)-N-methyl-3-nitrobenzamide] |  | < 100 nM | < 100 nM
17 | CNC(=O)c1cc(Cl)cc([N+](=O)[O-])c1N[C@H]1CN(C(=O)c2cncc3ccccc23)CCC1(F)F [Compound 92, (S)-5-chloro-2-((4,4-difluoro-1-(isoquinoline-4-carbonyl)piperidin-3-yl)amino)-N-methyl-3-nitrobenzamide] |  | < 100 nM | < 100 nM
18 | COC1CN(C(=O)c2cc(Cl)cc([N+](=O)[O-])c2N[C@H]2CN(C(=O)c3cncc4ccccc34)CCC2(F)F)C1 [Compound 44, (S)-(5-chloro-2-((4,4-difluoro-1-(isoquinoline-4-carbonyl)piperidin-3-yl)amino)-3-nitrophenyl)(3-methoxyazetidin-1-yl)methanone] |  | < 100 nM | < 100 nM
19 | O=C(NC1CC1)c1cc(Br)cc([N+](=O)[O-])c1N[C@H]1CN(C(=O)c2cncc3ccccc23)CCC1(F)F [Compound 147, (S)-5-bromo-N-cyclopropyl-2-((4,4-difluoro-1-(isoquinoline-4-carbonyl)piperidin-3-yl)amino)-3-nitrobenzamide] |  | < 100 nM | < 100 nM
20 | O=C(N[C@H]1CCCC[C@H]1Nc1c(C(=O)N2CC(F)(F)C2)cc(Br)cc1[N+](=O)[O-])c1cncc2ccccc12 [Compound 14, N-((1S, 2R)-2-((4-bromo-2-(3,3-difluoroazetidine-1-carbonyl)-6-nitrophenyl)amino)cyclohexyl)isoquinoline-4-carboxamide] |  | 100 to 1000 nM | 100 to 1000 nM
21 | CNC(=O)c1cc(Br)cc(C(F)(F)F)c1N[C@H]1CN(C(=O)c2cncc3ccccc23)CCC1(F)F [Compound 35, (S)-5-bromo-2-((4,4-difluoro-1-(isoquinoline-4-carbonyl)piperidin-3-yl)amino)-N-methyl-3-(trifluoromethyl)benzamide] |  | < 100 nM | < 100 nM
